Assays:
[1] = tested on: HCT116 human colorectal carcinoma or A375 human malignant melanoma cells; assay: Cell proliferation assay (CellTiter-Glo); assay type: cell-based; conditions: in either one of the cell lines (HCT116, A375), 72 h
Description: Compounds are tested in a cell proliferation assay using the following cell lines:
HCT116 human colbrectal carcinoma (ATCC)
(§1) A375 human malignant melanoma (ATCC)
Both cell lines are maintained in DMEMIF12 (1:1) media (Gibco) supplemented with 10% FCS at 37° C. in a 5% CO2 humidified incubator.
Cells are seeded in 96-well plates at 2,000 cells/well and after 24 hours they are exposed to different concentrations of compounds in 0.83% DMSO. Cells are grown for a further 72 h, and an equal volume of CellTiter-Glo reagent (Promega) is added to each well. This lyses the cells and generates a luminescent signal proportional to the amount of ATP released (and therefore proportional to the number of cells in the well) that can be detected using a multiwell luminometer.
The EC50 is defined as the concentration at which a given compound achieves 50% inhibition of control. EC50 values are calculated using the XLfit software package (version 2.0.5).

[2] = tested on: cellular p-ERK in HCT116 or A375 cells; assay: Phospho-ERK cell-based assay (ELISA); conditions: Homo sapiens; in either one of the cell lines (HCT116, A375); 2 h or 24 h
Description: Compounds are tested in a cell-based phospho-ERK ELISA using the following cell lines:
HCT116 human colorectal carcinoma (ATCC)
as §1
Both cell lines are maintained in DMEM/F12 (1:1) media (Gibco) supplemented with 10% FCS at 37° C. in a 5% CO2 humidified incubator.
Cells are seeded in 96-well plates at 2,000 cells/well and after 24 h they are exposed to different concentrations of compounds in 0.83% DMSO. Cells are grown for a further 2 h or 24 h, fixed with formaldehyde (2% final) and permeabilised with methanol. Following blocking with TBST-3% BSA, fixed cells are incubated with primary antibody (anti-phospho ERK from rabbit) over-night at 4° C. Cells are incubated with Propidium Iodide (DNA fluorescent dye) and detection of cellular p-ERK is performed using an anti-rabbit secondary antibody conjugated to the fluorescent Alexa Fluor 488 dye (Molecular probes). The fluorescence is analysed using the Acumen Explorer (lTP Labtech), a laser-scanning microplate cytometer, and the Alexa Fluor 488 signal is normalised to the PI signal (proportional to cell number).
The EC50 is defined as the concentration at which a given compound achieves a signal half way between the baseline and the maximum response. EC50 values are calculated using the XLfit software package (version 2.0.5).

EC50 [2] [µM]	Compound	EC50 [1] [µM]
< 10	O=C(NOCCO)c1sc2ccncc2c1Nc1ccc(I)cc1F [Example 10, 3-(2-Fluoro-4-iodo-phenylamino)-thieno[3,2-c]pyridine-2-carboxylic acid (2-hydroxyethoxy)-amide]	< 10
< 10	O=C(NOCCO)c1sc2c(F)cncc2c1Nc1ccc(I)cc1F [Example 11, 7-Fluoro-3-(2-fluoro-4-iodo-phenylamino)-thieno[3,2-c]pyridine-2-carboxylic acid (2-hydroxy-ethoxy)-amide]	
< 10	CSc1ccc(Nc2c(C(=O)NOCCO)sc3ccncc23)c(F)c1 [Example 12, 3-(2-Fluoro-4-methylsulfanyl-phenylamino)-thieno[3,2-c]pyridine-2-carboxylic acid (2-hydroxy-ethoxy)-amide]	

Compound	EC50 [2] [µM]	EC50 [1] [µM]
O=C(NOC[C@H](O)CO)c1sc2ccncc2c1Nc1ccc(I)cc1F [Example 5, 3-(2-Fluoro-4-iodo-phenylamino)-thieno[3,2-c]pyridine-2-carboxylic acid ((R)-2,3-dihydroxy-propoxy)-amide]	< 10	< 10

— patent US7893085B2, “Aza-benzothiophenyl compounds and methods of use” (Genentech, Inc, priority 2006, dated 2011)
